One series deals with T1, OATP1B1 (Homo sapiens, UniProt Q9Y6L6).
T1 construct: host or cells: HEK293
T1 sequence (Q9Y6L6 1-691): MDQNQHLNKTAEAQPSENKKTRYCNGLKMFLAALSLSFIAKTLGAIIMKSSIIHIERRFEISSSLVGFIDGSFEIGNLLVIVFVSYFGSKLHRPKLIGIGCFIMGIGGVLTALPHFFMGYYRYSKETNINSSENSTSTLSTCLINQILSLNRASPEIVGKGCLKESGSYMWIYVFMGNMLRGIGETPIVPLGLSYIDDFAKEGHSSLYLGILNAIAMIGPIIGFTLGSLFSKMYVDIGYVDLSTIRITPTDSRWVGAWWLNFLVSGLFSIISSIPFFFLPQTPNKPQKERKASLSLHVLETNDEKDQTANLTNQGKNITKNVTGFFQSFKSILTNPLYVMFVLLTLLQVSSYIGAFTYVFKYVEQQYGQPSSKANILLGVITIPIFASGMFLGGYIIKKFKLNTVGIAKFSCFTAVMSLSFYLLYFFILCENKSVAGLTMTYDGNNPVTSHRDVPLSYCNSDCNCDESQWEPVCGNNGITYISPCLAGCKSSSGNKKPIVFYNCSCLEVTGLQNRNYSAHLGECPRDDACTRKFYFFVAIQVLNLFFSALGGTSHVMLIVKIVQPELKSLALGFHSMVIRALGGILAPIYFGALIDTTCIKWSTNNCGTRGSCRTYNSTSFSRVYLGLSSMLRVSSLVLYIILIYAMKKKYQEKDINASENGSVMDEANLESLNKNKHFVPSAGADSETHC
Description: [14C]fluciclovine uptake by OATP1B1-expressing cells. The settings on record: OATP1B1 cells vs mock cells. It counts as in vitro ADME. Here is the method:
For the SLC transporter experiments, Mock Flp-in-293 cells (Flp/mock), OAT1-expressing Flp-in-293 cells (Flp/OAT1), mock HEK293 cells (HEK/mock), and OATP1B3-expressing HEK293 cells (HEK/OATP1B3) were obtained from Kanazawa University (Ishikawa, Japan). Briefly, Flp-in-293 and HEK293 cells were transfected with the appropriate plasmid DNA and selected using antibiotics (hygromycin or G-418). All cell lines were cultured in DMEM (Life Technologies Japan) supplemented with 10% (v/v) fetal bovine serum (American Type Culture Collection) and antibiotics (100 U/mL penicillin and 100 μg/mL streptomycin (Life Technologies Japan) for mock cells, 0.2 mg/mL hygromycin for Flp/OAT1 cells, and 1.2 mg/mL G-418 (Roche Diagnostics K.K., Tokyo, Japan) for HEK/OATP1B3 cells) at 37 °C under an atmosphere containing 5% CO2. […]
The experiments were performed as described previously, with minor modifications. […] The cells were lysed in 0.3 mL of 0.1N NaOH at room temperature, after which the radioactivity of each aliquot was measured as described above. The protein concentration of the cell lysate was determined with a VersaMax microplate reader (Molecular Devices Japan K.K., Osaka, Japan) or SpectraMax i3x (Molecular Devices Japan K.K.; only for OATP1B1) using a BCA Protein Assay Kit (Thermo Fisher Scientific, Kanagawa, Japan). Tracer uptake was expressed as pmol/mg protein. […]

The test system of a further series is LLC-PK1 monolayer model. Description: Inhibition study of [14C]fluciclovine apical-to-basal transport, LLC-PK1 monolayer model. The source says: Natural and synthetic amino acids were used as inhibitors: MeAIB (2-(methylamino)-isobutyric acid, for system A in the presence of Na^+); Thr (L-threonine, for system ASC in the presence of Na^+); and BCH (2-aminobicyclo[2,2,1]heptane-2-carboxylic acid, for system L in the absence of Na^+).

Another series concerns the target T2, OCT2 (Homo sapiens, UniProt O15244).
T2 construct: host or cells: HEK293
T2 sequence (O15244 1-555): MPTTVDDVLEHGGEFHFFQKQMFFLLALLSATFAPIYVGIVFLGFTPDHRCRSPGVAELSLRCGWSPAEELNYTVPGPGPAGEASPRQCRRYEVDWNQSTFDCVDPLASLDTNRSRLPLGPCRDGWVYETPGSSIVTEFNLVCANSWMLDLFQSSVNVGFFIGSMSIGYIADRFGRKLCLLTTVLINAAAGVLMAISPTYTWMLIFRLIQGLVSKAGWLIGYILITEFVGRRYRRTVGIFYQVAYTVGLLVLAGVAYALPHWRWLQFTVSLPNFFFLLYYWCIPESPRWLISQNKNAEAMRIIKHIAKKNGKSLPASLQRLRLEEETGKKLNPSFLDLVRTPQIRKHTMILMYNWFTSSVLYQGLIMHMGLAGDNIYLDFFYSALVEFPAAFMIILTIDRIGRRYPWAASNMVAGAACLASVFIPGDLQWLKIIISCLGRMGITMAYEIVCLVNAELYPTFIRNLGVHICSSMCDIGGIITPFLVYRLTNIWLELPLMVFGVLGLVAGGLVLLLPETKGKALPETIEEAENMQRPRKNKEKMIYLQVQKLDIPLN
Description: Inhibition of tracer uptake in OCT2-expressing cells. In kind it is in vitro ADME. The settings on record: OCT2, tracer [14C]metformin 10 µM.

Take `N[14C]1(C(=O)O)CC(F)C1` (stereo not drawn) [[^14C]fluciclovine, trans-1-amino-3-fluoro[1-^14C]cyclobutanecarboxylic acid]: the drug transporter-mediated uptake entry at OATP1B1 was “negligible”. Also, in the series with LLC-PK1 monolayer model (Na+-free buffer, 10 µM, 120 min), the “apical-to-basal transport rate, % of the control in Na+ buffer” value was 58.8%. Besides, in the series with LLC-PK1 monolayer model (control in Na+-free buffer subtracted from control in Na+ buffer), the “contribution of Na+-dependent transport to the total penetration amount” value was found to be 41.2%.
The term IC50 denotes the concentration that gives 50% inhibition. At OCT2, `N[C@]1(C(=O)O)C[C@@H](F)C1` [fluciclovine] showed an IC50 of 8.95 ± 1.96 mM.

Values taken from paper PMC5085761 (International Journal of Molecular Sciences, 2016).
